Molecular target: T1, Bd1971 (Bdellovibrio bacteriovorus, UniProt Q6MLN6)
T1 construct: ITC: Bd1971ΔEAL (residues 1–150); crystal: full-length
Assay: ITC (two-site model) and co-crystal structure; also activates phosphodiesterase activity (K half […])
Format: binding

T1 sequence (Q6MLN6 entry or part of it): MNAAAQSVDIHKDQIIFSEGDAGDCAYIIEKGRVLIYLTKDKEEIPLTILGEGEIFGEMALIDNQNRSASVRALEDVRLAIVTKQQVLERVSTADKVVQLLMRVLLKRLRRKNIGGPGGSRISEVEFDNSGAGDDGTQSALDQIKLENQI

Kd: 769 nM
SMILES: Nc1nc2c(ncn2[C@@H]2O[C@@H]3COP(=O)(O)O[C@H]3[C@H]2O)c(=O)[nH]1 [cGMP]
